Here are results for eight compounds from article PMC8474110 (Journal of Medicinal Chemistry, 2021).

Where a name gives a salt, the structure may show the parent alone. Read-outs that look alike come from different tables or passages of the source.

One series concerns inoperable UM patients. Also noted: method as in PMID 25315663, PMID 23218699, PMID 21880788. As to conditions: at 4 months; cited from earlier work.
The target in a further series is T1, σ2 receptor (Cavia porcellus, UniProt H0V073).
T1 construct: the guinea pig brain membranes (300 μL, 360 μg protein) were incubated for 120 min at room temperature with 3 nM [^3H]-DTG; from tissue; host or cells: guinea pig brain membranes
T1 sequence (H0V073 1-176): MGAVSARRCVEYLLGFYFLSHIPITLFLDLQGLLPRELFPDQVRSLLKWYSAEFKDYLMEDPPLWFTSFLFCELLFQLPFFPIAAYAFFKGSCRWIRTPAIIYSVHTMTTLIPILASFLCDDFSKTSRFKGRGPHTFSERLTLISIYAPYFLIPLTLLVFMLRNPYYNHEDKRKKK
The note with it: guinea pig brain membranes; cited from earlier work.

Another series deals with HREC. The note with it: cited from earlier work.
Another series relates to human UM 92-1 cells. The series is described as follows: Crystal violet proliferation assay in human UM 92-1 cells. As to conditions: for effect on 92-1 cell proliferation compared to the vehicle control: VPA 2 mM, HP 10 μM, (±)-HP-mII 30 μM (predicted IC50 values); for effect alone on proliferation of human UM 92-1 cells: 2 μM. Format: cell-based. How it is done: Then, actions on cell proliferation were examined by crystal violet staining (Figure 6).
HREC and human 92-1 cell (seeded 4 × 10^3 and grown for 24 h at optimum culture conditions) proliferation was measured using crystal violet staining after treatment in 96-well plates with the indicated concentrations of chemicals for an additional 48 h. Control cells received an equal volume of vehicle (DMSO). At the end of the treatment, each well was washed with phosphate-buffered saline (PBS). Following this, the cells were fixed (in 4% paraformaldehyde) and stained with crystal violet solution (0.5% in 20% methanol for HREC or 1% aqueous solution for 92-1 cells). Subsequently, the plate was washed with water and left to dry. Crystal violet staining was evaluated by measuring the absorbance at 570 nm or 590 nm, after crystal violet extraction with 10% acetic acid (at room temperature for 10 min), with a microplate reader with the plate reader (Synergy 2-BioTek). For quantification, each assay was carried out in triplicate.

As to “AFL: VEGF-trap aflibercept, a popular drug in ophthalmology”, in the series with inoperable UM patients, the progression-free survival is given as 50%.

Broadly, the melting point is the temperature of the solid-liquid transition. On to `CCCC(CCC)C(=O)O[C@H](CCCN1CCC(O)(c2ccc(Cl)cc2)CC1)c1ccc(F)cc1` (as salt: oxalate) [(+)-1], for which the melting point lay within 159 to 164 °C.

As a reminder, the Ki is a dissociation constant, usually derived from enzyme kinetics or from competition with a known ligand. As for `O[C@@H](CCCN1CCC(O)(c2ccc(Cl)cc2)CC1)c1ccc(F)cc1` [(−)-4], the Ki on σ2 receptor is 9.8 ± 1.8 nM.

`OC(CCCN1CCC(O)(c2ccc(Cl)cc2)CC1)c1ccc(F)cc1` (racemic) [(±)-HP-mII, haloperidol metabolite II]: the “pIC50 ± SE, MTT viability test on HREC” value in the series with HREC (48 h) is listed as 3.89 ± 0.04; in the series on HREC (72 h), 4.16 ± 0.03. For the same compound, on σ2 receptor, the inhibition constant Ki was 2.4 ± 0.7 nM. For the same compound, in the series with human UM 92-1 cells, the “effect on 92-1 cell proliferation compared to the vehicle control” value was “significantly inhibited”.

Regarding `c1ccc(CCN2CCCCC2)cc1` [AC927, 1-phenethylpiperidine, reference compound], the “effect alone on proliferation of human UM 92-1 cells” value in the series with human UM 92-1 cells is given as “promote”.

As to `CCCC(CCC)C(=O)O[C@@H](CCCN1CCC(O)(c2ccc(Cl)cc2)CC1)c1ccc(F)cc1` (as salt: oxalate) [(−)-1], the melting point was 158 to 160 °C.

With `CC(C)=CCN1CC[C@]2(C)c3cc(O)ccc3C[C@H]1[C@H]2C` [PTZ, (+)-pentazocine, reference compound], the “effect alone on proliferation of human UM 92-1 cells” value with human UM 92-1 cells was “promote”.

`CCCC(CCC)C(=O)O` [VPA, valproic acid]: the figures for the “pIC50 ± SE, MTT viability test on HREC” value with HREC (24 h), with HREC (48 h) and in the series with HREC (72 h) were 2.91 ± 0.01, 2.84 ± 0.03 and 2.86 ± 0.01, respectively. Further, the “effect on 92-1 cell proliferation compared to the vehicle control” value in the series with human UM 92-1 cells is reported as “significantly inhibited”.
